From the Kinase Knowledgebase extract (Sharma et al. 2016)
pIC50: −log10 of the molar value.

Target: EGFR (UniProt P00533)
Sequence (P00533 whole entry, looked up): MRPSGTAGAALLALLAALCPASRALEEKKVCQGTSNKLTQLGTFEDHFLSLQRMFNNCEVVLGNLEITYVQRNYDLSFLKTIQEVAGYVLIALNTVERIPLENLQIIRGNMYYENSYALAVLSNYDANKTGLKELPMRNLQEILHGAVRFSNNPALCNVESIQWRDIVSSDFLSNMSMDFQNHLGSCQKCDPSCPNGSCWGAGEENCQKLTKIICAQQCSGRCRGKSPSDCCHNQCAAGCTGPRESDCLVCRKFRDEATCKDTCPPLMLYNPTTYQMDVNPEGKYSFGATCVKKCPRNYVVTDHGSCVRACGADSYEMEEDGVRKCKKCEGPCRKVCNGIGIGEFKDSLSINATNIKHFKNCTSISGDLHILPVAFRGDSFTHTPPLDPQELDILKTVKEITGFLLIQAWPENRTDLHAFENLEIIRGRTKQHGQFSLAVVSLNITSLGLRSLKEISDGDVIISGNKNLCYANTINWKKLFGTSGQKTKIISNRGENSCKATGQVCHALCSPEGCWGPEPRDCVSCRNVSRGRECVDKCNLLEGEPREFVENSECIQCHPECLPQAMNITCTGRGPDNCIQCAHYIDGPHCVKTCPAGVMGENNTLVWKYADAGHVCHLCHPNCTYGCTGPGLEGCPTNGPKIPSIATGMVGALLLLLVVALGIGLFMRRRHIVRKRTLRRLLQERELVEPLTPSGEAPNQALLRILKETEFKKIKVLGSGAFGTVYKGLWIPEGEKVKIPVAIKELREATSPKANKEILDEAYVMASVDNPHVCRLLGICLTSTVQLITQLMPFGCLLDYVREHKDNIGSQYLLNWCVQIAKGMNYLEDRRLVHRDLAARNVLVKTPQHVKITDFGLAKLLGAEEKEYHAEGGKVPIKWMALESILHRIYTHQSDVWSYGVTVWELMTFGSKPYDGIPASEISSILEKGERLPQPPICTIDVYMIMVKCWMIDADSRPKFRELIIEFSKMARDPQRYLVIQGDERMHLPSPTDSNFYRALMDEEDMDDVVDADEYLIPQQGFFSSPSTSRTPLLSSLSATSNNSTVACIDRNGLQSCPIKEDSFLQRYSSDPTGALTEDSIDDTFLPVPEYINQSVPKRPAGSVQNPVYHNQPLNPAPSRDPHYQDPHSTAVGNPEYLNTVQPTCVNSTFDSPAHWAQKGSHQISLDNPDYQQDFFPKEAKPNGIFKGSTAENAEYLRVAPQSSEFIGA

| Structure (SMILES) | pIC50 |
| --- | --- |
| CCOC(=O)c1cn2ncnc(NCCc3ccccc3)c2c1CC | 4.60 to 8.52 |
| Cc1c(C(=O)NCCCN2CCOCC2)cn2ncnc(C3C(=O)Nc4ccccc43)c12 (configuration not stated) | 4.60 to 8.52 |
| COC(=O)c1cn2ncnc(Nc3cccc(CO)c3)c2c1C | 4.60 to 8.52 |
| COC(=O)c1cn2ncnc(C3C(=O)Nc4ccc(S(=O)(=O)NCCO)cc43)c2c1C (configuration not stated) | 4.60 to 8.52 |
| CCOC(=O)c1cn2ncnc(C3C(=O)Nc4ccccc43)c2c1OC (configuration not stated) | 4.60 to 8.52 |
| CCc1c(C(=O)O)cn2ncnc(Nc3ccc(OC)nc3)c12 | 4.60 to 8.52 |
| CCOC(=O)c1cn2ncnc(Nc3ccc(C)c(O)c3)c2c1-c1ccccc1 | 4.60 to 8.52 |
| COC(=O)c1cn2ncnc(C3C(=O)Nc4ccc(F)cc43)c2c1C (configuration not stated) | 4.60 to 8.52 |
| COC(=O)c1cn2ncnc(Nc3cccc4cnccc34)c2c1C | 4.60 to 8.52 |
| COC(=O)c1cn2ncnc(Nc3ccc(OC)c(OC)c3)c2c1C | 4.60 to 8.52 |
| COC(=O)c1cn2ncnc(Nc3cc(C)[nH]n3)c2c1C | 4.60 to 8.52 |
| Cc1c(C(=O)NCCCN2CCCC2)cn2ncnc(C3C(=O)Nc4ccccc43)c12 (configuration not stated) | 4.60 to 8.52 |
| Cc1ccc(Nc2ncnn3cc(C(=O)OCc4ccccc4)c(C)c23)cc1O | 4.60 to 8.52 |
| COC(=O)c1cn2ncnc(-n3[nH]c4ccccc4c3=O)c2c1C | 4.60 to 8.52 |
| CCOC(=O)c1cn2ncnc(Nc3ccc(C)c(O)c3)c2c1C(C)C | 4.60 to 8.52 |
| Cc1ccc(Nc2ncnn3cc(C(=O)NCCN(C)C)c(C)c23)cc1O | 4.60 to 8.52 |
| COC(=O)c1cn2ncnc(C3C(=O)Nc4ncccc43)c2c1C (configuration not stated) | 4.60 to 8.52 |
| COc1cn2ncnc(Nc3ccc(C)c(O)c3)c2c1OC | 4.60 to 8.52 |
| COc1c(N)cn2ncnc(C3C(=O)Nc4ccccc43)c12 (configuration not stated) | 4.60 to 8.52 |
| Cc1c(C(=O)O)cn2ncnc(C3C(=O)Nc4ccccc43)c12 (configuration not stated) | 4.60 to 8.52 |
| Cc1nc(C2C(=O)Nc3ccccc32)c2c(C)c(C(=O)NCCN3CCCC3)cn2n1 (configuration not stated) | 4.60 to 8.52 |

| Structure (SMILES) | pIC50 |
| --- | --- |
| CCOC(=O)c1cn2ncnc(NCc3ccc(Br)cc3)c2c1CC | 4.60 to 8.52 |
| COC(=O)c1cn2ncnc(Nc3cccc(NC(C)=O)c3)c2c1C | 4.60 to 8.52 |
| COC(=O)c1cn2ncnc(Nc3ccc(Cl)c([N+](=O)[O-])c3)c2c1C | 4.60 to 8.52 |
| CCc1c(CO)cn2ncnc(Nc3ccc4c(cnn4Cc4ccccc4)c3)c12 | 4.60 to 8.52 |
| Cc1ccc(Nc2ncnn3cc(C(=O)NCCCS(C)(=O)=O)c(C)c23)cc1O | 4.60 to 8.52 |
| CCc1c(C(=O)OC)cn2ncnc(Nc3ccc(OC)nc3)c12 | 4.60 to 8.52 |
| Cc1c(C(=O)NCCCN2CCOCC2)cn2ncnc(C3C(=O)Nc4ccc(S(N)(=O)=O)cc43)c12 (configuration not stated) | 4.60 to 8.52 |
| COC(=O)c1cn2ncnc(Nc3ccc4c(=O)[nH][nH]c(=O)c4c3)c2c1C | 4.60 to 8.52 |
| Clc1ccc(Nc2ncnn3cccc23)cc1 | 4.60 to 8.52 |
| Cc1ccc(Nc2nc(N(C)C)nn3cccc23)cc1O | 4.60 to 8.52 |
| COC(=O)c1cn2ncnc(Nc3ccc(C)c(F)c3)c2c1C | 4.60 to 8.52 |
| COC(=O)c1cn2ncnc(Nc3ccc4c(cnn4Cc4ccccc4)c3)c2c1C | 4.60 to 8.52 |
| Cc1c(CCCN2CCOCC2)cn2ncnc(Nc3cccc(Br)c3)c12 | 4.60 to 8.52 |
| COC(=O)c1cn2ncnc(C3C(=O)Nc4ccc(C(N)=O)cc43)c2c1C (configuration not stated) | 4.60 to 8.52 |
| COc1c(NC(=O)OCc2ccccc2)cn2ncnc(C3C(=O)Nc4ccccc43)c12 (configuration not stated) | 4.60 to 8.52 |
| CCOC(=O)c1cn2ncnc(Nc3ccc(C)c(O)c3)c2c1Cc1ccccc1 | 4.60 to 8.52 |
| COc1c(C(=O)N(C)CCN2CCCC2)cn2ncnc(Nc3ccc(Br)cc3F)c12 | 4.60 to 8.52 |
| CCc1c(C(=O)NCCN2CCOCC2)cn2ncnc(Nc3ccc4c(cnn4Cc4ccccc4)c3)c12 | 4.60 to 8.52 |
| COC(=O)c1cn2ncnc(Nc3ccc(Oc4ccccc4)cc3)c2c1C | 4.60 to 8.52 |
| Cc1ccc(Nc2ncnn3cc(C(=O)NCCCN4CCN(C)CC4)c(C)c23)cc1O | 4.60 to 8.52 |
| CCOC(=O)c1cn2ncnc(Nc3ccc(F)c(Cl)c3)c2c1CC | 4.60 to 8.52 |

| Structure (SMILES) | pIC50 |
| --- | --- |
| CCc1c(C(=O)NCCN2CCCC2)cn2nc(C)nc(Nc3ccc(OC)nc3)c12 | 4.60 to 8.52 |
| COC(=O)c1cn2ncnc(C3C(=O)Nc4ccc(S(=O)(=O)NCCN5CCCC5)cc43)c2c1C (configuration not stated) | 4.60 to 8.52 |
| CC(=O)N1CCc2ccc(Nc3ncnn4cccc34)cc21 | 4.60 to 8.52 |
| Cc1ccc(Nc2ncnn3cc(C(=O)NCCCCN(C)C)c(C)c23)cc1O | 4.60 to 8.52 |
| CCNC(=O)c1cn2ncnc(Nc3ccc4c(cnn4Cc4ccccc4)c3)c2c1CC | 4.60 to 8.52 |
| COC(=O)c1cn2ncnc(C3C(=O)Nc4ccccc43)c2c1C (configuration not stated) | 4.60 to 8.52 |
| COC(=O)c1cn2ncnc(-n3[nH]c(=O)c4ccccc43)c2c1C | 4.60 to 8.52 |
| Cc1c(OCCCn2cncn2)cn2ncnc(C3C(=O)Nc4ccccc43)c12 (configuration not stated) | 4.60 to 8.52 |
| COC(=O)c1cc2c(Nc3ccc(F)c(Cl)c3)ncnn2c1 | 4.60 to 8.52 |
| Cc1ccc2c(Nc3ccc(Br)cc3F)ncnn12 | 4.60 to 8.52 |
| CCOC(=O)c1cn2ncnc(Nc3ccc(OC)nc3)c2c1OC | 4.60 to 8.52 |
| COC(=O)c1cn2ncnc(Nc3cccc(O)c3C)c2c1C | 4.60 to 8.52 |
| COC(=O)c1cn2ncnc(-n3[nH]c(C)cc3=O)c2c1C | 4.60 to 8.52 |
| COC(=O)c1cn2ncnc(Nc3ccc4c(c3)N(C(C)=O)CC4)c2c1C | 4.60 to 8.52 |
| CCCc1ccc(Nc2ncnn3cc(C(=O)OC)c(C)c23)cc1O | 4.60 to 8.52 |
| CCc1c(C(=O)NCCN2CCCC2)cn2ncnc(Nc3ccc(OC)nc3)c12 | 4.60 to 8.52 |
| CCOC(=O)c1cn2ncnc(Cc3ccc(F)c(Cl)c3)c2c1C(C)C | 4.60 to 8.52 |
| COC(=O)c1cn2ncnc(Nc3cccc(C(=O)NN)c3)c2c1C | 4.60 to 8.52 |
| Cc1ccc(Nc2ncnn3cc(C(=O)O)c(C)c23)cc1O | 4.60 to 8.52 |
| COC(=O)c1cn2ncnc(C3C(=O)Nc4ccc(C#N)cc43)c2c1C (configuration not stated) | 4.60 to 8.52 |
| COC(=O)c1cn2ncnc(N3CCc4ccccc43)c2c1C | 4.60 to 8.52 |

| Structure (SMILES) | pIC50 |
| --- | --- |
| Cc1c(C(=O)NCCCN2CCOCC2)cn2ncnc(Nc3ccc(Br)cc3)c12 | 4.60 to 8.52 |
| CCOC(=O)c1cn2ncnc(N3CCCC4C=CC=CC43)c2c1CC (configuration not stated) | 4.60 to 8.52 |
| CCOC(=O)c1cn2ncnc(Cl)c2c1CC | 4.60 to 8.52 |
| COC(=O)c1cn2ncnc(Cl)c2c1C | 4.60 to 8.52 |
| Cc1c(OCCCn2nccn2)cn2ncnc(Nc3ccc(Br)cc3F)c12 | 4.60 to 8.52 |
| Cc1nc(C2C(=O)Nc3ccccc32)c2c(C)c(C(=O)NCCCN3CCOCC3)cn2n1 (configuration not stated) | 4.60 to 8.52 |
| Cc1c(NC(=O)NCCN2CCOCC2)cn2ncnc(C3C(=O)Nc4ccccc43)c12 (configuration not stated) | 4.60 to 8.52 |
| COC(=O)c1cn2ncnc(C3C(=O)Nc4ccc(S(N)(=O)=O)cc43)c2c1C (configuration not stated) | 4.60 to 8.52 |
| COCCCNC(=O)c1cn2ncnc(C3C(=O)Nc4ccccc43)c2c1C (configuration not stated) | 4.60 to 8.52 |
| COC(=O)c1cn2ncnc(Nc3ccc4cn[nH]c4c3)c2c1C | 4.60 to 8.52 |
| COC(=O)c1cn2ncnc(Nc3ccc4c(C)cc(=O)[nH]c4c3)c2c1C | 4.60 to 8.52 |
| COC(=O)c1cn2ncnc(-c3c(O)[nH]c4cc(F)ccc34)c2c1C | 4.60 to 8.52 |
| CCOC(=O)c1cn2ncnc(Nc3ccc(O)cc3)c2c1CC | 4.60 to 8.52 |
| Cc1c(C(=O)NCCCN2CCOCC2)cn2ncnc(C3C(=O)Nc4ccc(F)cc43)c12 (configuration not stated) | 4.60 to 8.52 |
| CCOC(=O)c1cn2ncnc(NCCCn3ccnc3)c2c1CC | 4.60 to 8.52 |
| COC(=O)c1cn2ncnc(Oc3cccc(O)c3)c2c1C | 4.60 to 8.52 |
| Cc1ccc(Nc2ncnn3cc(CO)c(C)c23)cc1O | 4.60 to 8.52 |
| COC(=O)c1cn2ncnc(C3C(=O)Nc4ccc(S(=O)(=O)NCCN5CCOCC5)cc43)c2c1C (configuration not stated) | 4.60 to 8.52 |
| Cc1c(C(=O)NCCCn2nccn2)cn2ncnc(C3C(=O)Nc4ccccc43)c12 (configuration not stated) | 4.60 to 8.52 |
